Reference: PubChem BioAssay AID272 (DTP/NCI, 2004)
Several values for one entry are separate records, joined by “and”; a condition that tells them apart may be missing. Equal values may be shown once. Inconclusive results are not listed.

Test system: Lewis lung carcinoma i.m., BDF1 mice, T/C %
Test: NCI In Vivo Anticancer Drug Screen. Data for tumor model Lewis Lung Carcinoma (intramuscular) in B6D2F1 (BDF1) mice
Outline: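 Compound given to mice with transplantable tumours; survival or tumour size compared against the vehicle control group, reported as T divided by C.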

[1] = endpoint: mean tumor weight (est.), dose: 2.0 mg/kg/injection, schedule: Q01DX011 (ip), vehicle: saline, higher = larger tumour
[2] = endpoint: mean tumor weight (est.), dose: 4.0 mg/kg/injection, schedule: Q01DX011 (ip), vehicle: saline, higher = larger tumour
[3] = endpoint: median survival time, dose: 2.0 mg/kg/injection, schedule: Q01DX011 (ip), vehicle: saline, higher = longer survival
[4] = endpoint: median survival time, dose: 4.0 mg/kg/injection, schedule: Q01DX011 (ip), vehicle: saline, higher = longer survival
[5] = endpoint: mean tumor weight (est.), dose: 12.5 mg/kg/injection, schedule: Q01DX011 (ip), vehicle: saline with Tween-80, higher = larger tumour
[6] = endpoint: mean tumor weight (est.), dose: 25.0 mg/kg/injection, schedule: Q01DX011 (ip), vehicle: saline with Tween-80, higher = larger tumour
[7] = endpoint: mean tumor weight (est.), dose: 50.0 mg/kg/injection, schedule: Q01DX011 (ip), vehicle: saline with Tween-80, higher = larger tumour
[8] = endpoint: median survival time, dose: 12.5 mg/kg/injection, schedule: Q01DX011 (ip), vehicle: saline with Tween-80, higher = longer survival
[9] = endpoint: median survival time, dose: 25.0 mg/kg/injection, schedule: Q01DX011 (ip), vehicle: saline with Tween-80, higher = longer survival
[10] = endpoint: mean tumor weight (est.), dose: 100.0 mg/kg/injection, schedule: Q01DX011 (ip), vehicle: saline with Tween-80, higher = larger tumour
[11] = endpoint: median survival time, dose: 100.0 mg/kg/injection, schedule: Q01DX011 (ip), vehicle: saline with Tween-80, higher = longer survival
[12] = endpoint: mean tumor weight (est.), dose: 200.0 mg/kg/injection, schedule: Q01DX011 (ip), vehicle: saline with Tween-80, higher = larger tumour

O=S(=O)(O)SCCNCCCCCC1CCCCC1
T/C (endpoint: mean tumor weight (est.), dose: 0.75 mg/kg/injection, schedule: Q01DX011 (ip), vehicle: saline, higher = larger tumour): 78 % of control | T/C (endpoint: mean tumor weight (est.), dose: 1.5 mg/kg/injection, schedule: Q01DX011 (ip), vehicle: saline, higher = larger tumour): 80 % of control | T/C (endpoint: mean tumor weight (est.), dose: 3.0 mg/kg/injection, schedule: Q01DX011 (ip), vehicle: saline, higher = larger tumour): 88 % of control | T/C (endpoint: mean tumor weight (est.), dose: 6.0 mg/kg/injection, schedule: Q01DX011 (ip), vehicle: saline, higher = larger tumour): 100 % of control | T/C (endpoint: median survival time, dose: 0.75 mg/kg/injection, schedule: Q01DX011 (ip), vehicle: saline, higher = longer survival): 94 % of control | T/C (endpoint: median survival time, dose: 1.5 mg/kg/injection, schedule: Q01DX011 (ip), vehicle: saline, higher = longer survival): 111 % of control | T/C (endpoint: median survival time, dose: 3.0 mg/kg/injection, schedule: Q01DX011 (ip), vehicle: saline, higher = longer survival): 107 % of control | T/C (endpoint: median survival time, dose: 6.0 mg/kg/injection, schedule: Q01DX011 (ip), vehicle: saline, higher = longer survival): 96 % of control

CCCCCCCCCCCC(c1ccccc1)[N+](C)(C)C (stereo unspecified)
T/C [1]: 89 % of control | T/C [2]: 76 % of control | T/C [3]: 104 % of control | T/C [4]: 108 % of control

CN1C=c2c3c(ccc2=C2C=CC4C=C5OCOC5=CC4=C21)OCO3 (stereo unspecified)
T/C (endpoint: mean tumor weight (est.), dose: 7.5 mg/kg/injection, schedule: Q01DX011 (ip), vehicle: saline with Tween-80, higher = larger tumour): 78 % of control | T/C (endpoint: mean tumor weight (est.), dose: 15.0 mg/kg/injection, schedule: Q01DX011 (ip), vehicle: saline with Tween-80, higher = larger tumour): 51 % of control | T/C (endpoint: median survival time, dose: 7.5 mg/kg/injection, schedule: Q01DX011 (ip), vehicle: saline with Tween-80, higher = longer survival): 122 % of control | T/C (endpoint: median survival time, dose: 15.0 mg/kg/injection, schedule: Q01DX011 (ip), vehicle: saline with Tween-80, higher = longer survival): 100 % of control

COCC(O)Cn1ccnc1[N+](=O)[O-] (stereo unspecified)
T/C (endpoint: median survival time, dose: 600.0 mg/kg/injection, schedule: Q01DX001 (ip), vehicle: saline, higher = longer survival): 90 % of control and 92 % of control and 96 % of control | T/C (endpoint: median survival time, dose: 1000.0 mg/kg/injection, schedule: Q01DX001 (ip), vehicle: saline, higher = longer survival): 92 % of control and 104 % of control and 106 % of control

Nc1ncnc2c1ncn2C1OC(CO)C(O)C1O (stereo unspecified)
T/C (endpoint: mean tumor weight (est.), dose: 200.0 mg/kg/injection, schedule: Q01DX011 (ip), vehicle: saline, higher = larger tumour): 65 % of control | T/C (endpoint: mean tumor weight (est.), dose: 400.0 mg/kg/injection, schedule: Q01DX011 (ip), vehicle: saline, higher = larger tumour): 63 % of control | T/C (endpoint: mean tumor weight (est.), dose: 600.0 mg/kg/injection, schedule: Q01DX011 (ip), vehicle: saline, higher = larger tumour): 15 % of control | T/C (endpoint: median survival time, dose: 200.0 mg/kg/injection, schedule: Q01DX011 (ip), vehicle: saline, higher = longer survival): 119 % of control | T/C (endpoint: median survival time, dose: 400.0 mg/kg/injection, schedule: Q01DX011 (ip), vehicle: saline, higher = longer survival): 86 % of control

CCC/C(C)=N/Nc1ccccn1
T/C [5]: 85 % of control | T/C [6]: 84 % of control | T/C [7]: 81 % of control | T/C [8]: 94 % of control | T/C [9]: 88 % of control

Cc1cccc2cc3c(ccc4ccccc43)c[n+]12
T/C (endpoint: mean tumor weight (est.), dose: 1.0 mg/kg/injection, schedule: Q01DX011 (ip), vehicle: saline, higher = larger tumour): 91 % of control | T/C [1]: 87 % of control | T/C [2]: 83 % of control | T/C (endpoint: mean tumor weight (est.), dose: 8.0 mg/kg/injection, schedule: Q01DX011 (ip), vehicle: saline, higher = larger tumour): 46 % of control | T/C (endpoint: median survival time, dose: 1.0 mg/kg/injection, schedule: Q01DX011 (ip), vehicle: saline, higher = longer survival): 98 % of control | T/C [3]: 101 % of control | T/C [4]: 98 % of control | T/C (endpoint: median survival time, dose: 8.0 mg/kg/injection, schedule: Q01DX011 (ip), vehicle: saline, higher = longer survival): 121 % of control

Nc1ncnc2c1ncn2Cc1ccccc1
T/C [5]: 101 % of control | T/C [6]: 102 % of control | T/C [7]: 76 % of control | T/C [10]: 67 % of control | T/C [8]: 89 % of control | T/C [9]: 100 % of control | T/C (endpoint: median survival time, dose: 50.0 mg/kg/injection, schedule: Q01DX011 (ip), vehicle: saline with Tween-80, higher = longer survival): 93 % of control | T/C [11]: 97 % of control

Cc1ccc2c(ccc(C)[n+]2C)c1
T/C (endpoint: mean tumor weight (est.), dose: 37.5 mg/kg/injection, schedule: Q01DX011 (ip), vehicle: saline, higher = larger tumour): 86 % of control | T/C (endpoint: mean tumor weight (est.), dose: 75.0 mg/kg/injection, schedule: Q01DX011 (ip), vehicle: saline, higher = larger tumour): 86 % of control

CC(=N/NC(N)=S)/C(C)=N/NC(N)=S
T/C [10]: 73 % of control | T/C [12]: 65 % of control | T/C (endpoint: mean tumor weight (est.), dose: 400.0 mg/kg/injection, schedule: Q01DX011 (ip), vehicle: saline with Tween-80, higher = larger tumour): 42 % of control | T/C [11]: 93 % of control | T/C (endpoint: median survival time, dose: 200.0 mg/kg/injection, schedule: Q01DX011 (ip), vehicle: saline with Tween-80, higher = longer survival): 91 % of control | T/C (endpoint: median survival time, dose: 400.0 mg/kg/injection, schedule: Q01DX011 (ip), vehicle: saline with Tween-80, higher = longer survival): 91 % of control

CC(=O)c1ccc(Oc2ccc(/C(C)=N\N=C(N)N)cc2)cc1
T/C [5]: 66 % of control | T/C [6]: 74 % of control | T/C [8]: 91 % of control

Clc1ccc2nc(CBr)cnc2c1
T/C (endpoint: mean tumor weight (est.), dose: 6.25 mg/kg/injection, schedule: Q01DX011 (ip), vehicle: saline with Tween-80, higher = larger tumour): 64 % of control | T/C [5]: 77 % of control | T/C [6]: 81 % of control | T/C (endpoint: median survival time, dose: 6.25 mg/kg/injection, schedule: Q01DX011 (ip), vehicle: saline with Tween-80, higher = longer survival): 105 % of control | T/C [8]: 105 % of control | T/C [9]: 103 % of control

CSc1ncnc2c1ncn2C1OC(CO)C(O)C1O (stereo unspecified)
T/C (endpoint: mean tumor weight, dose: 3.75 mg/kg/injection, schedule: Q01DX011 (ip), vehicle: saline, higher = larger tumour): 86 % of control | T/C (endpoint: mean tumor weight, dose: 7.5 mg/kg/injection, schedule: Q01DX011 (ip), vehicle: saline, higher = larger tumour): 63 % of control | T/C (endpoint: median survival time, dose: 3.75 mg/kg/injection, schedule: Q01DX011 (ip), vehicle: saline, higher = longer survival): 100 % of control | T/C (endpoint: median survival time, dose: 7.5 mg/kg/injection, schedule: Q01DX011 (ip), vehicle: saline, higher = longer survival): 90 % of control

N#Cc1c(F)c(F)c(C#N)c(F)c1F
T/C (endpoint: mean tumor weight (est.), dose: 1.25 mg/kg/injection, schedule: Q01DX011 (ip), vehicle: saline with Tween-80, higher = larger tumour): 100 % of control | T/C (endpoint: mean tumor weight (est.), dose: 2.5 mg/kg/injection, schedule: Q01DX011 (ip), vehicle: saline with Tween-80, higher = larger tumour): 95 % of control | T/C (endpoint: mean tumor weight (est.), dose: 5.0 mg/kg/injection, schedule: Q01DX011 (ip), vehicle: saline with Tween-80, higher = larger tumour): 101 % of control | T/C (endpoint: mean tumor weight (est.), dose: 10.0 mg/kg/injection, schedule: Q01DX011 (ip), vehicle: saline with Tween-80, higher = larger tumour): 70 % of control | T/C (endpoint: median survival time, dose: 1.25 mg/kg/injection, schedule: Q01DX011 (ip), vehicle: saline with Tween-80, higher = longer survival): 87 % of control | T/C (endpoint: median survival time, dose: 10.0 mg/kg/injection, schedule: Q01DX011 (ip), vehicle: saline with Tween-80, higher = longer survival): 89 % of control

O=[N+]([O-])c1ccc(N/N=C/CC(O)CO)c([N+](=O)[O-])c1 (stereo unspecified)
T/C [10]: 57 % of control | T/C [12]: 52 % of control | T/C [11]: 92 % of control

COC(=O)Nc1nc2ccc(C3(c4ccc(F)cc4)OCCO3)cc2[nH]1
T/C (endpoint: median survival time, dose: 20.0 mg/kg/injection, schedule: Q01DX011 (oral), vehicle: other, higher = longer survival): 97 % of control | T/C (endpoint: median survival time, dose: 40.0 mg/kg/injection, schedule: Q01DX011 (oral), vehicle: other, higher = longer survival): 97 % of control
